From patent US4731109A, “Herbicidal 2-haloacetanilides” (Monsanto Company, priority 1982, dated 1988)
Read-outs that look alike come from different tables or passages of the source.

Key:
Bristly Starbur = assay: Field preemergence activity in peanuts, surface applied; assay type: in vivo; conditions: for inhibition at 2240 g/ha / inhibition at 3360 g/ha / inhibition at 4480 g/ha: pre-emergence, read-out: Percent Inhibition; for inhibition at 2240 g/ha: 2.24 Kg/Ha; for inhibition at 3360 g/ha: 3.36 Kg/Ha; for inhibition at 4480 g/ha: 4.48 Kg/Ha
Text: (§1) It will be understood by those skilled in the art that not all of the named weeds are selectively controlled in all of the named crops under all conditions of climate, soil, moisture and/or herbicide application modes. Selectivity data for control of the foregoing weeds in the crops soybeans, corn, cotton and peanuts from a plurality of field tests in various locations under various conditions of soil, moisture, etc., is shown collectively in Tables VIII-XI, respectively.
(§2) In Table XI is presented preemergence activity data for the compound of Example 1 against three resistant annual weeds, i.e., Texas panicum, bristly starbur and Florida pusley in peanuts for periods up to 12 WAT. The data in Table XI represent the average of three replicate runs in sandy loam soil having 1.3% organic matter, 79.2% sand and 10% clay; herbicide surface applied.

Texas panicum = assay: as above; assay type: in vivo; conditions: pre-emergence, read-out: Percent Inhibition; for inhibition at 2240 g/ha: 2.24 Kg/Ha; for inhibition at 3360 g/ha: 3.36 Kg/Ha; for inhibition at 4480 g/ha: 4.48 Kg/Ha
Text: as §1, §2

Toxicology studies, LD50 = conditions: in vivo
Text: Toxicology studies on the compound of Example 1 have indicated the compound to be quite safe. […] No special handling procedures beyond normal precautions are deemed necessary.

[1] = test system: annual grasses, annual broadleafs and perennials; assay: Other tests, preemergence selective control or suppression of weeds; assay type: in vivo

Compound: CCOCN(C(=O)CCl)c1c(C)cccc1C(F)(F)F [Example 1, N-(ethoxymethyl)-2'-trifluoromethyl-6'-methyl-2-chloroacetanilide]
- control (Bristly Starbur; 4.48 kg/ha, 12 WAT): complete control
- inhibition at 2240 g/ha (Bristly Starbur; 8 WAT): 78%
- inhibition at 2240 g/ha (Bristly Starbur; 12 WAT): 40%
- inhibition at 3360 g/ha (Bristly Starbur; 8 WAT): 85%
- inhibition at 3360 g/ha (Bristly Starbur; 12 WAT): 60%
- inhibition at 4480 g/ha (Bristly Starbur; 8 WAT): 95%
- inhibition at 4480 g/ha (Bristly Starbur; 12 WAT): 100%
- inhibition at 2240 g/ha (Texas panicum; 4 WAT): 50%
- inhibition at 2240 g/ha (Texas panicum; 8 WAT): 67%
- inhibition at 2240 g/ha (Texas panicum; 12 WAT): 40%
- inhibition at 3360 g/ha (Texas panicum; 4 WAT): 68%
- inhibition at 3360 g/ha (Texas panicum; 8 WAT): 63%
- inhibition at 3360 g/ha (Texas panicum; 12 WAT): 55%
- inhibition at 4480 g/ha (Texas panicum; 4 WAT): 85%
- inhibition at 4480 g/ha (Texas panicum; 8 WAT): 88%
- inhibition at 4480 g/ha (Texas panicum; 12 WAT): 78%
- toxicity (Toxicology studies, LD50): slightly toxic
- LD50 (Toxicology studies, LD50; po, read-out: OLD50): 2300 mg/kg
- LD50 (Toxicology studies, LD50; read-out: MLD50): > 5010 mg/kg
- preemergence selective control or suppression of weeds ([1]; in soybeans, corn, cotton, peanuts, beans, potatoes, tree fruits, turf grasses): effectiveness for premergence selective control or suppression
- competition from seedling johnsongrass, Texas panicum, sandbur, shattercane, Florida beggarweed, lambsquarters, ragweed, prickley sida and smartweed ([1]; in vivo): reduces competition
